From PubChem BioAssay (NCI) come the findings set out here.

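Five compound concentrations were applied to cells in 96-well plates for 48 hours; endpoints were derived by simple linear interpolation of the resulting dose-response curve. The concentration for full growth arrest is given as TGI.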 Bounds are passed on as bounds.

The first assay has as its system NCI-H226 lung. The experiment in a line: growth of human tumour cells (NCI), 48 h.
Regarding `CCOC(=O)CC(=O)ON(C)C(C)=O`, the TGI was > 100 µM.
Same read-out and setting: as for `CC(C)OP(=O)(OC(C)C)C(=NCCN=C(NNc1ccc([N+](=O)[O-])cc1)P(=O)(OC(C)C)OC(C)C)NNc1ccc([N+](=O)[O-])cc1`, the figure is 93.3 µM; as for `Cn1c2ccccc2c2cc(-c3ccccc3)c3c(c21)C(=O)c1ccccc1C3=O`, 84 µM.

A further assay concerns NCI-H23 lung. In words: growth of human tumour cells (NCI), 48 h.
For the compound `CCOC(=O)CC(=O)ON(C)C(C)=O`, the TGI is > 100 µM.
The same measure, in the same setting: with `CC(C)OP(=O)(OC(C)C)C(=NCCN=C(NNc1ccc([N+](=O)[O-])cc1)P(=O)(OC(C)C)OC(C)C)NNc1ccc([N+](=O)[O-])cc1` the figure was 5.23 µM; with `Cn1c2ccccc2c2cc(-c3ccccc3)c3c(c21)C(=O)c1ccccc1C3=O`, 22.8 µM.
On the same count and under the same terms, with `CN(C)c1ccc(/C=C(\NC(=O)c2ccccc2)c2nc3ncncc3[nH]2)cc1` the figure was > 100 µM.

For a further assay, the system named is NCI-H460 lung. In words: growth of human tumour cells (NCI), 48 h.
`CCOC(=O)CC(=O)ON(C)C(C)=O`: the TGI was > 100 µM.
With `CC(C)OP(=O)(OC(C)C)C(=NCCN=C(NNc1ccc([N+](=O)[O-])cc1)P(=O)(OC(C)C)OC(C)C)NNc1ccc([N+](=O)[O-])cc1`, the TGI was > 100 µM.

The subject of a further assay is NCI-H522 lung. In words: growth of human tumour cells (NCI), 48 h.
For `CCOC(=O)CC(=O)ON(C)C(C)=O`, the TGI is > 100 µM.
The compound `Cn1c2ccccc2c2cc(-c3ccccc3)c3c(c21)C(=O)c1ccccc1C3=O` returned a TGI of 48.4 µM.
`CN(C)c1ccc(/C=C(\NC(=O)c2ccccc2)c2nc3ncncc3[nH]2)cc1`: the TGI was > 100 µM.

Another assay has as its system OVCAR-3 ovarian. The experiment in a line: growth of human tumour cells (NCI), 48 h.
Regarding `CCOC(=O)CC(=O)ON(C)C(C)=O`, the TGI is > 100 µM.
The same measure, in the same setting: as for `CC(C)OP(=O)(OC(C)C)C(=NCCN=C(NNc1ccc([N+](=O)[O-])cc1)P(=O)(OC(C)C)OC(C)C)NNc1ccc([N+](=O)[O-])cc1`, the figure is 33.4 µM; as for `Cn1c2ccccc2c2cc(-c3ccccc3)c3c(c21)C(=O)c1ccccc1C3=O`, 36.4 µM; as for `CN(C)c1ccc(/C=C(\NC(=O)c2ccccc2)c2nc3ncncc3[nH]2)cc1`, > 100 µM.

The test system of a further assay is OVCAR-4 ovarian. In words: growth of human tumour cells (NCI), 48 h.
On to `CCOC(=O)CC(=O)ON(C)C(C)=O`, for which the TGI is > 100 µM.
Consider `CC(C)OP(=O)(OC(C)C)C(=NCCN=C(NNc1ccc([N+](=O)[O-])cc1)P(=O)(OC(C)C)OC(C)C)NNc1ccc([N+](=O)[O-])cc1`, for which the TGI is > 100 µM.
`Cn1c2ccccc2c2cc(-c3ccccc3)c3c(c21)C(=O)c1ccccc1C3=O` returned a TGI of 34.3 µM.
Turning to `CN(C)c1ccc(/C=C(\NC(=O)c2ccccc2)c2nc3ncncc3[nH]2)cc1`, the TGI was > 100 µM.

A further assay deals with OVCAR-5 ovarian. In words: growth of human tumour cells (NCI), 48 h.
`CCOC(=O)CC(=O)ON(C)C(C)=O`: the TGI was > 100 µM.
The same measure, in the same setting: with `CC(C)OP(=O)(OC(C)C)C(=NCCN=C(NNc1ccc([N+](=O)[O-])cc1)P(=O)(OC(C)C)OC(C)C)NNc1ccc([N+](=O)[O-])cc1` the figure was > 100 µM; with `CN(C)c1ccc(/C=C(\NC(=O)c2ccccc2)c2nc3ncncc3[nH]2)cc1`, > 100 µM.

The subject of a further assay is OVCAR-8 ovarian. In words: growth of human tumour cells (NCI), 48 h.
As for `CCOC(=O)CC(=O)ON(C)C(C)=O`, the TGI is > 100 µM.
On the same count and under the same terms, as for `CC(C)OP(=O)(OC(C)C)C(=NCCN=C(NNc1ccc([N+](=O)[O-])cc1)P(=O)(OC(C)C)OC(C)C)NNc1ccc([N+](=O)[O-])cc1`, the figure is > 100 µM.
On the same count and under the same terms, with `Cn1c2ccccc2c2cc(-c3ccccc3)c3c(c21)C(=O)c1ccccc1C3=O` the figure was 68.1 µM; with `CN(C)c1ccc(/C=C(\NC(=O)c2ccccc2)c2nc3ncncc3[nH]2)cc1`, > 100 µM.

In another assay the test system is RPMI-8226 leukemia. The experiment in a line: growth of human tumour cells (NCI), 48 h.
With `CCOC(=O)CC(=O)ON(C)C(C)=O`, the TGI is > 100 µM.
With `CC(C)OP(=O)(OC(C)C)C(=NCCN=C(NNc1ccc([N+](=O)[O-])cc1)P(=O)(OC(C)C)OC(C)C)NNc1ccc([N+](=O)[O-])cc1`, the TGI was > 100 µM.
For the compound `Cn1c2ccccc2c2cc(-c3ccccc3)c3c(c21)C(=O)c1ccccc1C3=O`, the TGI was 25.3 µM.

For the next assay, the system named is RXF 393 renal. The experiment in a line: growth of human tumour cells (NCI), 48 h.
Turning to `CN(C)c1ccc(/C=C(\NC(=O)c2ccccc2)c2nc3ncncc3[nH]2)cc1`, the TGI is > 100 µM.

The subject of the next assay is RXF-631 renal. In words: growth of human tumour cells (NCI), 48 h.
Consider `Cn1c2ccccc2c2cc(-c3ccccc3)c3c(c21)C(=O)c1ccccc1C3=O`, for which the TGI was > 100 µM.
Same read-out and setting: as for `CN(C)c1ccc(/C=C(\NC(=O)c2ccccc2)c2nc3ncncc3[nH]2)cc1`, the figure is > 100 µM.

For the next assay, the system named is SF-268 CNS. In words: growth of human tumour cells (NCI), 48 h.
For the compound `CCOC(=O)CC(=O)ON(C)C(C)=O`, the TGI was > 100 µM.
For the compound `CC(C)OP(=O)(OC(C)C)C(=NCCN=C(NNc1ccc([N+](=O)[O-])cc1)P(=O)(OC(C)C)OC(C)C)NNc1ccc([N+](=O)[O-])cc1`, the TGI is > 100 µM.
The compound `Cn1c2ccccc2c2cc(-c3ccccc3)c3c(c21)C(=O)c1ccccc1C3=O` yielded a TGI of 91.8 µM.
Still for that read-out and setting: with `CN(C)c1ccc(/C=C(\NC(=O)c2ccccc2)c2nc3ncncc3[nH]2)cc1` the figure was > 100 µM.

The next assay deals with SF-295 CNS. In words: growth of human tumour cells (NCI), 48 h.
In the case of `CCOC(=O)CC(=O)ON(C)C(C)=O`, the TGI was > 100 µM.
Still for that read-out and setting: with `Cn1c2ccccc2c2cc(-c3ccccc3)c3c(c21)C(=O)c1ccccc1C3=O` the figure was 74.4 µM; with `CN(C)c1ccc(/C=C(\NC(=O)c2ccccc2)c2nc3ncncc3[nH]2)cc1`, > 100 µM.

The test system of a further assay is SF-539 CNS. The experiment in a line: growth of human tumour cells (NCI), 48 h.
As for `CCOC(=O)CC(=O)ON(C)C(C)=O`, the TGI was > 100 µM.
Same read-out and setting: as for `CC(C)OP(=O)(OC(C)C)C(=NCCN=C(NNc1ccc([N+](=O)[O-])cc1)P(=O)(OC(C)C)OC(C)C)NNc1ccc([N+](=O)[O-])cc1`, the figure is > 100 µM; as for `Cn1c2ccccc2c2cc(-c3ccccc3)c3c(c21)C(=O)c1ccccc1C3=O`, 49.2 µM; as for `CN(C)c1ccc(/C=C(\NC(=O)c2ccccc2)c2nc3ncncc3[nH]2)cc1`, > 100 µM.

For another assay, the system named is SK-MEL-2 melanoma. The experiment in a line: growth of human tumour cells (NCI), 48 h.
Regarding `CCOC(=O)CC(=O)ON(C)C(C)=O`, the TGI was > 100 µM.
The same measure, in the same setting: as for `CC(C)OP(=O)(OC(C)C)C(=NCCN=C(NNc1ccc([N+](=O)[O-])cc1)P(=O)(OC(C)C)OC(C)C)NNc1ccc([N+](=O)[O-])cc1`, the figure is 53 µM; as for `Cn1c2ccccc2c2cc(-c3ccccc3)c3c(c21)C(=O)c1ccccc1C3=O`, 43.4 µM.
The same measure, in the same setting: as for `CN(C)c1ccc(/C=C(\NC(=O)c2ccccc2)c2nc3ncncc3[nH]2)cc1`, the figure is > 100 µM.

For a further assay, the system named is SK-MEL-28 melanoma. In words: growth of human tumour cells (NCI), 48 h.
For `CC(C)OP(=O)(OC(C)C)C(=NCCN=C(NNc1ccc([N+](=O)[O-])cc1)P(=O)(OC(C)C)OC(C)C)NNc1ccc([N+](=O)[O-])cc1`, the TGI was > 100 µM.
The same measure, in the same setting: with `Cn1c2ccccc2c2cc(-c3ccccc3)c3c(c21)C(=O)c1ccccc1C3=O` the figure was 37.5 µM.
